Experimental data taken from patent US8133474B2, “Sensors for fluorescence and magnetic resonance imaging” (Massachusetts Institute of Technology, priority 2006, dated 2012).

Columns and labels:
[1] = test system: intracellular zinc in HEK-293 cells; experiment: Cellular MR imaging of intracellular zinc, T1 and T2 of cell pellets; type: cell-based; settings: for T2 of cell pellet, zinc-treated samples: then 200 μM Zn^2+
Description: (§1) MRI samples prepared as described above were arrayed into microtiter plates and placed in a 40-cm-bore Avance 4.7 T MRI scanner (Bruker, Billerica, Mass.). Unused wells were filled with PBS, and imaging was performed on a 2-mm slice through the sample. A spin echo pulse sequence with multiecho acquisition was used. The TR was fixed for every acquisition, and the TE was in defined increments. For example, for TR=100 ms, TE varied from 10 to 80 ms, with a 10-ms increment. To adjust further the weight between T1 and T2, various TRs were applied and the TE increment was changed accordingly, if necessary. Data matrices of 512×128 points were acquired and zero-filled to 256 points in the second (phase encoding) dimension. Images were reconstructed and analyzed by using custom routines running in Matlab (Mathworks, Natick, Mass.).
To investigate zinc-induced relaxivity changes in compound 2 inside cells, cell pellets were prepared with and without exogenously introduced zinc, and their MR images were recorded and compared. The HEK-293 cell suspension was divided equally into two flasks after a 24-h treatment with 100 μM of compound 2 or Mn-TPPS4. A 200-μM portion of zinc pyrithione was then added to one of the samples and incubated for an additional 10 min. As in the solution studies, comparisons were made by using Mn-TPPS4 as a reference compound. In addition, an untreated cell sample was prepared as a control. The cell suspensions were pelleted by centrifugation, washed, and transferred into a multiwell plate for MRI analysis. A spin echo pulse sequence was used to acquire MRI images.
T1 and T2 were determined by a series of MR images with varied TR or TE, respectively. The values reported are the average from three separate experiments with standard deviations as indicated by the horizontal bars.

[2] = Zinc-dependent MR relaxivity in buffered solutions; type: physicochemical; settings: for zinc-induced change of MR signal in buffered solution: 1 mM Zn^2+, 25 mM Pipes pH 7, T1-weighted 200 μM agent, T2-weighted 500 μM agent with 100 mM KCl; for zinc-induced T2 change at high ionic strength: 100 mM KCl, buffered solution
Description: as §1
Insertion of a paramagnetic manganese(III) ion into the porphyrin core of compound 1 rendered the resulting (DPA-C2)2-TPPS3Mn(III) complex (compound 2) an MRI contrast agent. The properties of compound 2 were investigated by using a spin echo pulse sequence to collect images at several echo times (TEs) in parallel. In some experiments, the repetition times (TRs) were varied so that both T1 and T2 could be evaluated. Multiwell plates were used for sample preparation, which allowed several conditions to be investigated in parallel. The well-studied MRI T1 agent, Mn-TPPS4, which contains a similar porphyrin platform as compound 2 but lacks a zinc-binding unit, was chosen as a reference compound.
The zinc-dependent MR relaxivity of compound 2 was first investigated in buffered solutions. Solutions of compound 2 or Mn-TPPS4 in 25 mM Pipes buffer at pH 7.0 were arrayed in microtiter plates. A spin echo pulse sequence was used to acquire an MRI image. […] Addition of 1 mM ZnCl2 to a 200 μM solution of compound 2 dissolved in 25 mM Pipes buffer at pH 7 slowed down the T1 relaxation. […] The T1 values of zinc-free and zinc-saturated solutions were determined at various concentrations of compound 2, from which T1 relaxivity (R1) values could be deduced.
The surrounding wells (not shown) were filled with PBS to maintain a homogenous magnetic field to mark the positions of the samples.
The zinc-induced T2 enhancement depended on the total concentration of compound 2.

[3] = Absorption spectrum in buffered neutral aqueous solution; type: physicochemical; settings: Soret band centered at 416 nm; 50 mM Hepes/100 mM KCl, pH 7.0
Description: (§2) Millipore water was used to prepare all aqueous solutions. All spectroscopic measurements were performed in buffered solutions containing 50 mM of the buffering species and 100 mM KCl adjusted to the desired pH. A glass electrode (Orion, Boston, Mass.), calibrated before each use, was used to determine solution pH. Solutions of Zn^2+ were prepared from 100 mM stocks of ZnCl2 in water. Absorption spectra were recorded on a 8453A diode array spectrophotometer (Hewlett-Packard, Palo Alto, Calif.) or a Cary 50 Bio UV-visible spectrophotometer (Varian, Palo Alto, Calif.), and fluorescence spectra were obtained with a Quanta Master 4 L-format scanning spectrofluorimeter (Photon Technology International, Lawrenceville, N.J.) equipped with an LPS-220B 75-W xenon lamp and power supply, an A-1010B lamp housing with integrated igniter, a switchable 814 photon-counting/analog photomultiplier detection unit, and a MD-5020 motor driver. Samples for absorption and emission measurements were held in 1×1-cm quartz cuvettes (3.5 mL volume; Stama, Atascadero, Calif.). […] Quantum yields were determined by reference to TPPS4 [0.16 in pH=7 aqueous solution].
The spectroscopic properties of compound 1 were evaluated in buffered neutral aqueous solution (50 mM Hepes/100 mM KCl, pH 7.0). […] Excitation was provided at 418 nm for the emission spectrum, and emission was detected at 648 nm for the excitation spectrum. […]

Fluorescence pH profile = type: physicochemical; settings: pH 10.1 to pH 4.5; 5 μM in 100 mM KCl; excitation 416 nm, integrated 550 to 800 nm
Description: The pH-sensitivity of compound 1 was then studied. In some cases, it may be advantageous to reduce fluorescence turn-on by protonation for fluorescent zinc(II) sensors, as protonation can diminish the sensitivity of the sensor to zinc by increasing the background signal intensity. […] The pH values of the solution were adjusted by adding an appropriate volume of HCl or KOH stock solution. The fluorescence spectrum was measured upon excitation at 416 nm, and the fluorescence intensity was integrated from 550 to 800 nm.

all cell lines tested = experiment: Membrane permeability in cell lines; type: cell-based
Description: Suspension cultures of HEK-293 enabled production of a sizeable cell pellet, which was then plated as an adherent monolayer for fluorescence imaging studies. The monolayer cultures were subcultured five times after the initial plating, grown to 70% confluence on glass cover slips and treated with compound 1 for fluorescence imaging. The cytotoxicity of compound 1 was evaluated in these adherent HEK-293 cells by incubating them with 5 μM of compound 1 for 24 h.

[4] = test system: intracellular Zn^2+ in HEK-293 cells; experiment: Intracellular zinc imaging by fluorescence microscopy; type: cell-based; settings: 5 μM 24 h, 40 μM Zn^2+/pyrithione 10 min
Description: The cell fluorescence imaging experiments were performed with an Axiovert 200M inverted epifluorescence microscope (Zeiss, Thomwood, N.Y.) equipped with an EM-CCD digital camera C9100 (Hamamatsu Hamamatsu City, Japan) and a MS200 XY Piezo Z stage (Applied Scientific Instruments, Eugene, Oreg.). An X-Cite 120 metal-halide lamp (EXFO, Quebec, Canada) was used as the light source. The fluorescence images were obtained by using a x63 oil immersion objective lenses and a customized optical filter (exciter: D425/50; emitter: E6001p; beamsplitter: 460dcxr; Chroma Technology, Rockingham, Vt.). The microscope was operated with Volocity software (Improvision, Lexington, Mass.).
Fixed cells were investigated by fluorescence imaging using a customized optical filter (exciter: D425/50; emitter: E6001p; beamsplitter: 460dcxr), which was designed to match the excitation and emission profiles of compound 1. The cell nuclei were costained with the blue fluorescent dye Hoechst 33258 (0.4 μM). The HEK-293 cells were incubated with 5 μM of compound 1 for 24 h before fixing. […] The insets show the corresponding bright-field images (Scale bars: 25 μm).

[5] = Fluorescence metal ion selectivity; settings: 100 μM metal ion, 5 μM compound, 50 mM Hepes/100 mM KCl, pH 7.0, excitation 418 nm
Description: as §2, with “solution]. […]” for “solution].”
Even large excesses of Na^+, K^+, Ca^2+, and Mg^2+, which are biologically relevant, potentially competing, mobile metal ions, barely perturb the fluorescence of the zinc-free and zinc-bound forms of compound 1.

HEK-293 cells [6] = experiment: Cytotoxicity in HEK-293 suspension cells, cell density; type: cell-based; settings: 100 μM, 24 h
HEK-293 cells [7] = experiment: Subcellular localization by manganese atomic absorption spectroscopy of cell fractions; type: cell-based
Description: Cell monolayers were grown in 75-cm plates to 70% confluence and treated with 100 μM of either 2 or Mn-TPPS4, followed by incubation for 24 h. All fractionation steps were performed at 4° C. After twice pelleting by centrifugation (500×g) and washing with PBS, cells were lysed in a low-salt buffer and incubated on ice for 15 min. After centrifugation (420×g, 5 min) the pellet was resuspended in two packed-cell volumes of lysis buffer with 20 strokes of a 27-gauge syringe needle. After centrifugation (11,000×g, 20 min), the supernatant was retained (cytosolic fraction), and the nuclei were lysed in 0.42 M salt with 10 strokes of a 17-gauge syringe needle. After centrifugation (20,000×g, 5 min), the supernatant was obtained as the nuclear fraction.
Manganese atomic absorption spectroscopic analyses of samples were performed on an Aanalyst 300 instrument equipped with an HGA-800 graphite furnace (PerkinElmer, Wellesley, Mass.). Pyrolysis was performed at 1,400° C. for 30 s, and atomization was performed at 2,200° C. for 5 s.
To confirm the membrane permeability and further investigate the subcellular localization of compound 2, the cells were lysed, and nuclear and cytosolic fractions were extracted and analyzed by atomic absorption spectroscopy (AAS).

[8] = HEK-293, 100 μM 24 h, no exogenous zinc
[9] = HEK-293, 100 μM 24 h, then 200 μM zinc pyrithione 10 min

| extinction coefficient (ε) of Soret band [3] | fluorescence increase on acidification (Fluorescence pH profile) | membrane permeability (all cell lines tested) | Compound | T1 of cell pellet, absence of zinc [1, 8] [s] | T2 of cell pellet, non zinc-treated samples [1, 8] [ms] | T2 of cell pellet, zinc-treated samples ([1]; HEK-293, 100 μM 24 h) [ms] | T1 of cell pellet, presence of zinc [1, 9] [s] | zinc-induced change of MR signal in buffered solution [2] | zinc-induced T2 change at high ionic strength [2] | change of intracellular red fluorescence upon addition of Zn^2+ [4] | selectivity of fluorescence turn-on for Zn^2+ over other metal ions [5] | cytotoxicity (cell density vs untreated control cells) (HEK-293 cells [6]) | cell membrane permeability (HEK-293 cells [7]; AAS of lysed cell fractions) | Mn in cytosol (AAS) (HEK-293 cells [7]; cells treated with 100 μM, 24 h, cytosolic fraction) [mg Mn/liter] | Mn in nuclear fraction (AAS) (HEK-293 cells [7]; cells treated with 100 μM, 24 h, nuclear fraction) [mg Mn/liter] | T1 of cell pellet, zinc-free sample [1, 8] [ms] | T1 of cell pellet, zinc-containing sample [1, 9] [ms] | cell membrane permeability from relative increase in T1-weighted MR signal ([1]; HEK-293 cells, 100 μM, 24 h, TR=100 ms, TE=10 ms) |
| --- | --- | --- | --- | --- | --- | --- | --- | --- | --- | --- | --- | --- | --- | --- | --- | --- | --- | --- |
| – | – | – | O=S(=O)([O-])c1ccc(-c2c3nc(c(-c4ccc(S(=O)(=O)[O-])cc4)c4ccc([n-]4)c(-c4ccc(S(=O)(=O)[O-])cc4)c4ccc([n-]4)c(-c4ccc(S(=O)(=O)[O-])cc4)c4nc2C=C4)C=C3)cc1.[Mn+3] [Mn-TPPS4, reference compound] | 1.1 | 107 | 94 | 1.0 | almost no change | no zinc-induced T2 change | – | – | – | – | – | – | – | – | – |
| 250,700 M^−1·cm^−1 | less than a factor of two | membrane-permeable | O=S(=O)(O)c1ccc(-c2c3nc(c(-c4ccc(S(=O)(=O)O)cc4)c4ccc([nH]4)c(-c4c(NCCN(Cc5ccccn5)Cc5ccccn5)cccc4NCCN(Cc4ccccn4)Cc4ccccn4)c4nc(c(-c5ccc(S(=O)(=O)O)cc5)c5ccc2[nH]5)C=C4)C=C3)cc1 [compound 1, (DPA-C2)2-TPPS3] | – | – | – | – | – | – | significant increase in the red fluorescence intensity | selective for Zn^2+ over many other monovalent and divalent metal ions | – | – | – | – | – | – | – |
| – | – | – | (DPA-C2)2-Mn(III)TPPS3 [compound 2] | – | 69 | 25.0 | – | lowers the MR signal intensity | zinc-induced enhancement of T2 relaxation | – | – | little cytoxicity | cell membrane-permeable | 0.78 | 5.62 | 510 | 80 | greater cell membrane permeability than Mn-TPPS4 |
